According to US7547678B2, “Method for treating a disease, disorder or adverse effect caused by an elevated serum concentration of an UGT1A1 substrate” (Abbott Laboratories, priority 2008, dated 2009):
Several values for one entry are separate records, joined by “and”; a condition that tells them apart may be missing. Identical values can stand only once.

What was measured:
[1] = one study, subjects taking atazanavir; cited from earlier work
[2] = test system: bilirubin conjugation in human microsomes; settings: in vitro system of human microsomes; cited from earlier work
UGT1A1 isoform = biological target: T1, UGT1A1 isoform (Homo sapiens, UniProt P22309); settings: human cells transfected with the UGT1A1 isoform; cited from earlier work
T1 sequence (P22309 26-533): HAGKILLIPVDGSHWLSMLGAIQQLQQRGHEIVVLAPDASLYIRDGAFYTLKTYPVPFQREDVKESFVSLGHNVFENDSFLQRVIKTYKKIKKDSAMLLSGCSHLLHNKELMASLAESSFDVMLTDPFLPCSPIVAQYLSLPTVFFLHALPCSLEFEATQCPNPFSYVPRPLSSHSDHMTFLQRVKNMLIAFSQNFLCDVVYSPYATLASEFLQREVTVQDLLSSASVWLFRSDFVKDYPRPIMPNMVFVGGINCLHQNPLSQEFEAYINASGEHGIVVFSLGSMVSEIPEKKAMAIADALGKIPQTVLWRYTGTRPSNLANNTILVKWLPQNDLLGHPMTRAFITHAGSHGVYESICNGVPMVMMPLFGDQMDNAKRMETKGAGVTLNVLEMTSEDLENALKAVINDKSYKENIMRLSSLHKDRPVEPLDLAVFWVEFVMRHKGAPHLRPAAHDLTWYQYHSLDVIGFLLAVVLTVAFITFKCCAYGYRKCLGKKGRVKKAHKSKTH

[3] = Ethinylestradiol pharmacokinetics alone and with ritonavir in healthy female volunteers; assay type: in vivo, human
Method: This was an open-label, single-center study in healthy female volunteers who had not received an oral contraceptive for a minimum of six months prior to study start. Subjects received the first dose of oral contraceptive containing 50 μg of ethinyl estradiol on Day 1. […] On Day 15, 300 mg q12h was administered, 400 mg q12h was given on Day 16, and 500 mg q12h was administered thereafter. […] Blood samples for ethinylestradiol concentrations were collected for 48 h after each of the oral contraceptive doses.
Twenty-seven subjects were enrolled in the study. […] Data from these four subjects were therefore excluded from summary statistics. The mean ±SD age of the 23 subjects who completed the study was 34±10 yrs (range 19 to 45 yrs), the mean ±SD weight was 67.3±10.9 kg (range 50.8 to 90.3 kg), and the mean ±SD height was 167±7 cm (range 155 to 180 cm).
Ethinylestradiol was supplied as Demulen@ 1/50-21 tablets (G.D. Searle & Co.) containing 50 μg of ethinylestradiol and 1 mg of ethynodiol diacetate and was administered at 8:00 a.m. on Day 1 and Day 29 with approximately 240 mL of water and within 15 minutes of a meal or snack.
Subjects were confined for 64 hours from Day-1 (day prior to the initial dose) through the first 48 hour blood collection (morning of Day 3) and for 64 hours from Day 28 through the second 48 hour blood collection (morning of Day 31). In addition, subjects came to the clinical testing unit as outpatients for meals, dosing and other study activities twice daily for a total of 14 consecutive days, starting on Day 15. Strenuous activity during confinement was not permitted. During confinement, subjects abstained from all food and beverages except for the scheduled meals and snacks provided in the study. Water was available ad libitum. All meals were standardized with regard to content during confinement. Breakfast, lunch, and dinner were served at approximately 7:30 a.m., 1:00 p.m. and 7:30 p.m. and snacks were provided at approximately 10:00 p.m., except on Days-1 and 28 when the snack was served at 9:45 p.m. An 8 hour fast was required prior to all blood collections for clinical laboratory analyses. The sequence of starting breakfast and dinner on each dosing day during confinement was maintained to the minute such that the time intervals relative to dosing were the same among all subjects.
Blood samples (7 mL) were collected for serum ethinyl estradiol concentrations at the following times relative to the dose on Day 1 and Day 29: prior to (0 h) and at 0.5, 1, 2, 3, 4, 6, 8, 10, 12, 18, 24, 30, 36, and 48 h post-dose. […] All plasma and serum samples were packed with dry ice and shipped to the analytical sites.
Serum samples were analyzed for ethinylestradiol concentrations at Pharmaco LSR, Richmond, Va.
Analysis of serum samples for determination of ethinyl estradiol was performed at Pharmaco LSR, Richmond, Va. Ethinylestradiol serum concentrations were determined using a gas chromatography/mass spectrometry (GC/MS) method. 17α-ethinylestradiol and its corresponding isotopically labeled internal standard were isolated from human serum by buffering the serum to pH 8.6 and then extracting with an ethyl ether/methylene chloride mixture. The organic layer was exchanged into aqueous base, washed with hexane and then acidified and extracted with methylene chloride. […] This method has been validated over 17α-ethinylestradiol concentrations ranging from 2.00 to 256 pg/mL for a 1.0 mL serum volume, with a minimum quantitation limit of 2.00 pg/mL. […]

[4] = test system: bilirubin-conjugating activity; settings: indinavir treatment; cited from earlier work
[5] = test system: UDP-glucuronosyltransferase 1A (UGT 1A); assay: Affymetrix Rat U34 microarray of liver RNA after oral ritonavir; assay type: in vivo, Sprague-Dawley rats
UGT1A1 = assay: Hepatic 17α-ethinylestradiol glucuronidation activity in liver microsomes of treated rats; settings: both male and female rats
[6] = Mean ± SD, n = 23, single 50 μg ethinylestradiol dose, alone (Day 1) or on Day 29 during ritonavir 500 mg q12h, serum
[7] = 1-Day Studies, 20 mg/kg oral, liver RNA, 20 mg/kg
[8] = 1-Day Studies, 50 mg/kg oral, liver RNA, 50 mg/kg
[9] = 3-Day Studies, 50 mg/kg oral daily, liver RNA, 50 mg/kg

## COC(=O)N[C@H](C(=O)N[C@@H](Cc1ccccc1)[C@@H](O)CN(Cc1ccc(-c2ccccn2)cc1)NC(=O)[C@@H](NC(=O)OC)C(C)(C)C)C(C)(C)C [Atazanavir]
[1]
  subjects exhibiting unconjugated hyperbilirubinemia: 57%
[2]
  inhibition of bilirubin conjugation (result in words): inhibits bilirubin conjugation in the micromolar range
UGT1A1 isoform
  inhibition of bilirubin conjugation (result in words): inhibits bilirubin conjugation in the micromolar range

## C#C[C@]1(O)CC[C@H]2[C@@H]3CCc4cc(O)ccc4[C@H]3CC[C@@]21C [Ethinylestradiol, 17α-ethinylestradiol]
[3]; [6]
  Ethinylestradiol AUC∞: 1.67 ± 0.377 ng·h/mL
  Ethinylestradiol Cmax: 0.104 ± 0.024 ng/mL
  Ethinylestradiol Tmax: 4.0 ± 1.7 h
  Ethinylestradiol β (terminal elimination rate constant): 0.0407 ± 0.0082 h⁻¹
[3]; single dose of oral contraceptive alone
  time at which serum ethinylestradiol concentrations peaked post-dose: approximately 4 h

## CC(C)(C)NC(=O)[C@@H]1CN(Cc2cccnc2)CCN1C[C@@H](O)C[C@@H](Cc1ccccc1)C(=O)N[C@H]1c2ccccc2C[C@H]1O [Indinavir]
[4]
  cause of elevations in serum-unconjugated bilirubin (result in words): direct inhibition of bilirubin-conjugating activity

## CC(C)c1nc(CN(C)C(=O)N[C@H](C(=O)N[C@@H](Cc2ccccc2)C[C@H](O)[C@H](Cc2ccccc2)NC(=O)OCc2cncs2)C(C)C)cs1 [ritonavir, Ritonavir]
[5]; 1-Day Studies, 20 mg/kg oral, liver RNA
  Fold change, UDP-glucuronosyltransferase 1 family, member 1 (1st probe sequence): 1.63
[5]; [7]
  Fold change, 3-methylcholanthrene-inducible UDP-glucuronosyltransferase: 1.83 and 1.54
  Fold change, UDP-glucuronosyltransferase 1 family, member 1 (2nd probe sequence): 1.68 and 1.51
  Fold change, UDP-glucuronosyltransferase 1 family, member 1 (3rd probe sequence): 1.8 and 1.52
[5]; 1-Day Studies, 50 mg/kg oral, liver RNA
  Fold change, UDP glucuronosyltransferase, exon 1.: 2.43
[5]; [8]
  Fold change, 3-methylcholanthrene-inducible UDP-glucuronosyltransferase: 1.63 and 2.1
  Fold change, UDP-glucuronosyltransferase 1 family, member 1 (1st probe sequence): 1.68 and 1.63
  Fold change, UDP-glucuronosyltransferase 1 family, member 1 (2nd probe sequence): 2.12 and 2.05
  Fold change, UDP-glucuronosyltransferase 1 family, member 1 (3rd probe sequence): 1.75 and 2.12
[5]; [9]
  Fold change, 3-methylcholanthrene-inducible UDP-glucuronosyltransferase: 1.54 and 1.85
  Fold change, UDP-glucuronosyltransferase 1 family, member 1 (3rd probe sequence): 1.31 and 1.33
[5]; dose levels of 100 mg/kg and higher, after 1 and 3 days of treatment
  UGT1A levels for all probe sets: consistent increase
UGT1A1
  glucuronidation of 17α-ethinylestradiol, a UGT1A1 substrate (result in words): significantly increase
